According to patent US20120035161A1, “Novel Compositions and Methods of Treating Diseases Using the Same” (CORRIDOR PHARMACEUTICALS, INC., priority 2006, published 2012):

Assays:
[1] = test system: Aspergillus fumigatus-based mouse asthma model; experiment: Aspergillus fumigatus-based mouse asthma model, lung resistance; format: in vivo; conditions: 20 mg/ml, intraperitoneally; for Lung resistance: A. fumigatus insult, day 29
Experimental: Compounds of the invention were also tested for efficiacy in an asthma model.
A cohort of mice was administered intraperitoneal injections of Aspergillus fumigatus on days 0, 14, 26, 27, and 28. Lung resistance was tested on day 29 immediately following a tracheotomy/methacholine procedure. Animals receiving dexamethasone were administered dexamethasone on days 26, 27 and 28. Animals receiving a compound of the invention were administered the compound just hours before the lung resistance test. As a control, all test compounds, as well as dexamethasone, were also administered to mice in the absence of an A. fumigatus insult.

[2] = biological target: T1, Serotonin (5-Hydroxytryptamine) 5-HT1A (Homo sapiens, UniProt P08908); experiment: Radioligand binding, 5-HT1A ([3H] 8-OH-DPAT)
T1 construct: expressed in transfected cells; host or cells: CHO cells
T1 sequence (P08908 1-422): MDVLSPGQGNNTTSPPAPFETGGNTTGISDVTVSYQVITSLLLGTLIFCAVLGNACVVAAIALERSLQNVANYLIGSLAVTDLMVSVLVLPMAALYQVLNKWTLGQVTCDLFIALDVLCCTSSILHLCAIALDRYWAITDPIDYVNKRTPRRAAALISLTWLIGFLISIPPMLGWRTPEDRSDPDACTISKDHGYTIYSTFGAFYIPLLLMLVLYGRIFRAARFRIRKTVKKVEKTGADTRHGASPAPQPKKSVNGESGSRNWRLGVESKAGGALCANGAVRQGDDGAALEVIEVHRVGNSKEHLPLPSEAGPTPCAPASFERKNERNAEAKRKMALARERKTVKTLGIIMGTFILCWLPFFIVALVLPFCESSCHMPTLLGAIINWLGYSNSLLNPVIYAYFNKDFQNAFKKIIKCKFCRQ
Experimental: (§1) The methods employed in this study have been adapted from the scientific literature to maximize reliability and reproducibility. Reference standards were run as an integral part of each assay to ensure the validity of the results obtained. Assays were performed under conditions as described below. Where presented, IC50 values were determined by a non-linear, least squares regression analysis using the Data Analysis Toolbox (MDL Information Systems, San Leandro, Calif., USA). Where inhibition constants (Ki) are presented, the Ki values were calculated using the equation of Cheng and Prusoff (Cheng, Y., Prusoff, W. H., Biochem. Pharmacol. 22:3099-3108, 1973) using the observed IC50 of the tested compound, the concentration of radioligand employed in the assay, and historical values for the KD of the ligand. Where presented, the Hill coefficient (nu), defining the slope of the competitive binding curve, was calculated using the Data Analysis Toolbox.

[3] = biological target: T2, Serotonin (5-Hydroxytryptamine) 5-HT1B (Rattus norvegicus, UniProt P28564); experiment: Assay 271200 radioligand binding, 5-HT1B; design: species or system Wistar Rat
T2 construct: from tissue
T2 sequence (P28564 whole entry): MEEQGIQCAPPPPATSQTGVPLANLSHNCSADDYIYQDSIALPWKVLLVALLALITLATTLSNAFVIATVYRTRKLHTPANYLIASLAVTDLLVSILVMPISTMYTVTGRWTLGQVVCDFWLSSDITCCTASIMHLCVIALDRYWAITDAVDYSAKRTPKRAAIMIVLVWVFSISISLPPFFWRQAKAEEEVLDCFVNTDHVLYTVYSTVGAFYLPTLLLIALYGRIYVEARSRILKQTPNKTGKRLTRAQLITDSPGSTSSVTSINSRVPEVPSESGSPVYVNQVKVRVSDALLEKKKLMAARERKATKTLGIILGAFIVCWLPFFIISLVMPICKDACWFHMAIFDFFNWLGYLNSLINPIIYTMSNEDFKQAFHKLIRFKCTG
Experimental: as §1

[4] = test system: Serotonin (5-Hydroxytryptamine) 5-HT2, Non-Selective; experiment: Assay 271600 radioligand binding, 5-HT2 non-selective; design: species or system Wistar Rat
Experimental: as §1

TNF-α = experiment: Model of LPS-mediated cytokine production, serum TNF-α; format: in vivo, CD1:ICR mice; conditions: 10 mg/kg
Experimental: (§2) Both ICI-685 and ICI-735 were formulated in water. For the time course study, both drugs were formulated at a concentration of 1 mg/ml and dosed 10 ml/kg to produce a dose of 10 mg/kg. For the dose-response study, drug was formulated at concentrations of 0.05, 0.2 and 0.5 mg/ml and dosed at a volume of 10 ml/kg to produce doses of 0.5, 2 and 5 mg/kg, respectively. Animals were dosed IV or IP.
CD1:ICR mice were obtained from Harlan (Indianapolis, Ind.) at 6 weeks of age. Animals were housed 5 per cage, kept on a 12 hr light dark cycle and fed food and water ad libitum. Animals were tested at 8-10 weeks of age.
(§3) Lipopolysaccharide (heat killed E. coli 0127:B5; Sigma Aldrich) was prepared in distilled water at a concentration of 0.025 mg/ml. LPS was dosed at a volume of 10 ml/kg (IP) to produce a final dose of 0.25 mg/kg (approximately 7.5 μg/mouse). Drugs were dosed prior to LPS administration as indicated elsewhere herein. Blood was collected by retro-orbital eye bleed 90 minutes after LPS administration, Serum was prepared from blood and TNF-α and IL-1β levels were measured by using the OPT-EIA mouse TNF-α and IL-1β ELISA kits (BD Biosciences) as per directions of the manufacturer.
The first study was designed to determine the optimal route of administration and the optimal pre-treatment time. Two pre-dose time course studies were conducted. The first (Study 1A) was conducted with 3 pre-dose time points (2, 6 and 18 hrs). The second was conducted at 0, 1 and 2 hr predose time points. For both studies, drug was dosed IP or IV.
Using data from the first study, a second study was conducted that was designed to measure dose-response activity of each compound. Compounds were tested at doses of […]., 2.0 and 5 mg/kg using the route and pre-treatment time that produced the best activity.
as §2, with “Compounds ICI-715, ICI-824, ICI-953” for “Both ICI-685”, “ICI-954” for “ICI-735”, “study,” for “study, both”, “drugs were” for “drug was”
as §3, with “mg/ml,” for “mg/ml.”, “[…]).” for “μg/mouse).”, “above.” for “elsewhere herein.”, “administration.” for “administration,”
The first study was designed to determine the optimal route of administration and the optimal pre-treatment time. One pre-dose time course was conducted (for all compounds) with compounds administered at 0, 1 and 2 hrs prior to LPS treatment. For both studies, drug was dosed IP or IV. The IP study and IV study were conducted on separate days.
Using data from the first study, a second study was conducted that was designed to measure dose-response activity of each compound. Compounds were tested at doses of 0.5, 2.0 and 5 mg/kg using the route and pre-treatment time that produced the best activity.

[5] = test system: Serotonin (5-Hydroxytryptamine) 5-HT1, Non-Selective; experiment: Assay 271000 radioligand binding, 5-HT1 non-selective; design: species or system Wistar Rat
Experimental: as §1

[6] = test system: rheumatoid arthritis (RA) animal model; experiment: Clinical arthritis score in mice sensitized with collagen injections; format: in vivo
Experimental: FIGS. 26-28 illustrate the effect of various compounds of the invention on the clinical arthritis score of mice treated with various compounds of the invention.
Additional testing of the effectiveness of compounds ICI-685, ICI-735 and ICI-847 at higher and lower concentrations were conducted, as illustrated in FIG. 29.

Row | Compound | Lung resistance [1] [cm H2O/ml/s] | inhibition at 0.1 µM [2] [%] | inhibition at 10 µM [2] [%] | inhibition at 0.1 µM [3] [%] | inhibition at 10 µM [3] [%] | % INHIBITION ([4]; 0.1 μM) [%] | % INHIBITION ([4]; 10 μM) [%] | inhibition at 10 mg/kg (TNF-α; Mus musculus, second pre-dose time course study, read-out: inhibition of TNFα) [%] | inhibition of TNFα levels (TNF-α; first time course, 2 hr pretreatment period, IV administration) | inhibition of LPS-stimulated TNFα secretion (TNF-α; pre-dose time course, IV or IP) | % INHIBITION ([5]; 0.1 μM) [%] | % INHIBITION ([5]; 10 μM) [%] | decreasing lung resistance compared with dexamethasone [1] | effectiveness at treating RA compared with dexamethasone ([6]; 30 mg/kg, FIG. 29) | clinical arthritis score compared with dexamethasone ([6]; orally 10 mg/kg daily, about 21 days, FIG. 26)
1 | C[C@@H]1C[C@H]2[C@@H]3CCC4=CC(=O)C=C[C@]4(C)[C@@]3(F)[C@@H](O)C[C@]2(C)[C@@]1(O)C(=O)CO [Dexamethasone, reference compound] | 7.75 | – | – | – | – | – | – | – | – | – | – | – | – | – | –
2 | FC(F)(F)c1ccc2c(c1)N(CCCN1CCNCC1)c1ccccc1S2 [ICI-685] | 12 | 1 | 26 | 6 | 10 | 31 | 82 | 70 | did not inhibit | inhibited | −3 | 32 | – | – | –
3 | NCCCN1CCC(CCCN2c3ccccc3Sc3ccc(C(F)(F)F)cc32)CC1 [ICI-847] | 7.25 | -8 | 74 | -5 | -33 | 3 | 82 | – | – | – | −11 | −7 | at least as effective as dexamethasone | as effective for the length of the study as is dexamethasone | as effective as dexamethasone
